Columns and labels:
Assay type in all cases: functional, cell-based
A549 = experiment: In vitro cytotoxicity against human tumor cell line A549
HEC-1B cell line = experiment: In vitro cytotoxicity against human tumor cell line HEC-1-B
Caov-3 cell line = experiment: In vitro cytotoxicity against human tumor cell line CAOV-3
[1] = system: KATO III stomach cancer cell line; experiment: In vitro cytotoxicity against human tumor cell line KATO-III
DLD-1 = experiment: In vitro cytotoxicity against human tumor cell line DLD-1

SMILES | IC50 (A549) | IC50 (HEC-1B cell line) | IC50 (Caov-3 cell line) | IC50 [1] | IC50 (DLD-1)
CCNCCc1c2c(nc3cc4c(cc13)OCCO4)-c1cc3c(c(=O)n1C2)COC(=O)C3(O)CC (stereo not drawn) | 0.5 nM | 190 nM |  |  | 
CCC(C)NCCc1c2c(nc3cc4c(cc13)OCCO4)-c1cc3c(c(=O)n1C2)COC(=O)C3(O)CC (stereo not drawn) |  | 3290 nM | 2000 nM |  | 
CCC(C)CNCCc1c2c(nc3cc4c(cc13)OCO4)-c1cc3c(c(=O)n1C2)COC(=O)C3(O)CC (stereo not drawn) |  | 2710 nM | 6570 nM |  | 
CCNCCc1c2c(nc3cc4c(cc13)OCO4)-c1cc3c(c(=O)n1C2)COC(=O)C3(O)CC (stereo not drawn) | 0.094 nM | 6060 nM | 33000 nM | 2.9 nM | 
CCC(C)CNCCc1c2c(nc3cc4c(cc13)OCCO4)-c1cc3c(c(=O)n1C2)COC(=O)C3(O)CC (stereo not drawn) |  | 3440 nM | 3500 nM |  | 
CCCNCCc1c2c(nc3cc4c(cc13)OCCO4)-c1cc3c(c(=O)n1C2)COC(=O)C3(O)CC (stereo not drawn) |  | > 100000 nM | > 100000 nM |  | 
CCC1(O)C(=O)OCc2c1cc1n(c2=O)Cc2c-1nc1ccccc1c2CCNC(C)C (stereo not drawn) | 0.26 nM |  |  | 1.6 nM | 7.3 nM
CCC1(O)C(=O)OCc2c1cc1n(c2=O)Cc2c-1nc1cc3c(cc1c2CCNCC(C)C)OCO3 (stereo not drawn) |  | 10000 nM | 21900 nM |  | 
CCC(C)NCCc1c2c(nc3cc4c(cc13)OCO4)-c1cc3c(c(=O)n1C2)COC(=O)C3(O)CC (stereo not drawn) |  | 14800 nM | 1510 nM |  | 
CCN(CC)CCNCCc1c2c(nc3cc4c(cc13)OCCO4)-c1cc3c(c(=O)n1C2)COC(=O)C3(O)CC (stereo not drawn) |  | 12100 nM | > 100000 nM |  | 
CCCCNCCc1c2c(nc3cc4c(cc13)OCO4)-c1cc3c(c(=O)n1C2)COC(=O)C3(O)CC (stereo not drawn) |  | 4680 nM | 62000 nM |  | 
CCCNCCc1c2c(nc3cc4c(cc13)OCO4)-c1cc3c(c(=O)n1C2)COC(=O)C3(O)CC (stereo not drawn) | 0.11 nM | 2110 nM | 63000 nM |  | 26 nM
CCC1(O)C(=O)OCc2c1cc1n(c2=O)Cc2c-1nc1cc3c(cc1c2CCNC(C)C)OCO3 (stereo not drawn) |  | 670 nM |  | 45 nM | 8.9 nM
CCCCNCCc1c2c(nc3cc4c(cc13)OCCO4)-c1cc3c(c(=O)n1C2)COC(=O)C3(O)CC (stereo not drawn) |  | 3650 nM | 7120 nM |  | 
CCC1(O)C(=O)OCc2c1cc1n(c2=O)Cc2c-1nc1cc3c(cc1c2CCNCC(C)C)OCCO3 (stereo not drawn) |  | 3650 nM | 7120 nM |  | 
CC[C@@]1(O)C(=O)OCc2c1cc1n(c2=O)Cc2cc3ccccc3nc2-1 [CAMPTOTHECIN] | 0.33 nM | 60 nM | 2.9 nM | 46 nM | 14 nM
CCC1(O)C(=O)OCc2c1cc1n(c2=O)Cc2c-1nc1cc3c(cc1c2CCNC(C)C)OCCO3 (stereo not drawn) |  | 12800 nM | 2320 nM |  | 
